From PMC6788984, “High-potency ligands for DREADD imaging and activation in rodents and monkeys” (Nature Communications, 2019)
pKi: −log10 of the molar value. Values joined by “and” are separate entries in the source; they are usually repeats but may differ in a detail not shown here. Equal entries are not always repeated.

What was measured:
[1] = molecular target: T1, hM4Di (Homo sapiens, UniProt P08173, A203G/Y113C); assay: [3H]clozapine competition binding, membranes of HEK-293 cells expressing hM4Di
T1 sequence (P08173 1-479 Y113C/A203G): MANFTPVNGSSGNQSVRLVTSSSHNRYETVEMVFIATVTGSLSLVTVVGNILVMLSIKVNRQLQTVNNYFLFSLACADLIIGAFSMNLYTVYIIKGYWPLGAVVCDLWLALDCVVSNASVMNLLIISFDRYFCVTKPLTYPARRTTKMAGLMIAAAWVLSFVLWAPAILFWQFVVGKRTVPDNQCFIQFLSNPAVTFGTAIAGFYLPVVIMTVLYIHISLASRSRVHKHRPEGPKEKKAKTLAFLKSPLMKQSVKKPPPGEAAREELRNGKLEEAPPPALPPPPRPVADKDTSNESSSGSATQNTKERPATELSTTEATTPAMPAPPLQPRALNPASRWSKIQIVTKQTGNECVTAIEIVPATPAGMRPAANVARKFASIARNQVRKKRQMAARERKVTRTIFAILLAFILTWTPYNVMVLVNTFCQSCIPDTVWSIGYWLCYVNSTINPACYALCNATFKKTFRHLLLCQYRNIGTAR
Experimental: (§2) Cells were routinely tested for myclopasma contamination (MycoAlert® Mycoplasma Detection Kit, Lonza). Cells were seeded on 60 cm^2 dishes at 4 × 10^6 cells/dish 24 h before transfection. The indicated amount of cDNA was transfected into HEK-293 cells using polyethylenimine (PEI; Sigma-Aldrich) in a 1–2 DNA:PEI ratio. Cell harvesting for radioligand binding experiments or signaling assays were performed approximately 48 h after transfection.
(§3) Cells were suspended in Tris-HCl 50 mM pH 7.4 supplemented with protease inhibitor cocktail (1:100, Sigma-Aldrich, St. Louis, MO, USA). The dissected brain tissue was diluted in Tris-HCl 50 mM buffer supplemented with protease inhibitor cocktail (1:1000). HEK-293 cells or brain tissue were disrupted with a Polytron homogenizer (Kinematica, Basel, Switzerland). Homogenates were centrifuged at 48,000g (50 min, 4 °C) and washed twice in the same conditions to isolate the membrane fraction. Protein was quantified by the bicinchoninic acid method (Pierce). […] In all cases, free and membrane-bound radioligand were separated by rapid filtration of 500-μl aliquots in a 96-well plate harvester (Brandel, Gaithersburg, MD, USA) and washed with 2 ml of ice-cold Tris-HCl buffer. […] One-site competition curves were fitted using Prism 7 (GraphPad Software, La Jolla, CA, USA). Ki values were calculated using the Cheng–Prusoff equation.

[2] = tested on: untransfected HEK-293 cells; assay: Negative controls of the functional assays: HEK-293 cells without DREADD; assay type: cell-based, human; conditions: HEK-293 cells
Experimental: BRET assays were performed to detect receptor ligand-induced Gαo1 protein activation. […] Forty-eight hour after transfection cells were harvested, washed and resuspended in phosphate-buffered saline (PBS). Approximately, 200,000 cells/well were distributed in 96-well plates, and 5 µM Coelenterazine H (substrate for luciferase) was added to each well. Five minutes after addition of Coelenterazine H, ligands were added to each well. The fluorescence of the acceptor was quantified (excitation at 500 nm and emission at 540 nm for 1-s recordings) in a PheraStar FSX plate reader (BMG Labtech) to confirm the constant expression levels across experiments. In parallel, the BRET signal from the same batch of cells was determined as the ratio of the light emitted by mVenus (510–540 nm) over that emitted by RLuc (485 nm). Results were calculated for the BRET change (BRET ratio for the corresponding drug minus BRET ratio in the absence of the drug) 5 min after the addition of the ligands.
Intracellular Ca^2+ concentration was monitored using the fluorescent Ca^2+ biosensor GCaMP6f. HEK-293 cells were transfected with 7 µg/dish of the cDNA encoding for hM3Dq (Addgene #89149) or hM4Di (Addgene #89150) and 7 µg/dish of GCaMP6. Forty-eight hours after transfection, cells were harvested, washed, resuspended in Mg^2+-free Locke’s buffer pH 7.4 (154 mM NaCl, 5.6 mM KCl, 3.6 mM NaHCO3, 2.3 mM CaCl2, and 5 mM HEPES) containing 5.6 mM of glucose and approximately 200,000 cells/well were distributed in black 96-well plates. Increasing concentrations of the indicated compound were added to the cells and fluorescence intensity (excitation at 480 nm, emission at 530 nm) was measured at 18-s intervals during 250 s using a PHERAstar FSX (BMG Labtech). The net change in intracellular Ca^2+ concentration was expressed as F − F0 where F is the fluorescence at a given concentration of ligand and F0 is the average of the baseline values (fluorescence values of buffer-treated wells).

[3] = molecular target: hM3Dq (Homo sapiens, UniProt P20309, A239G/Y149C); assay: [3H]clozapine competition binding, membranes of HEK-293 cells expressing hM3Dq
hM3Dq, sequence (P20309 whole entry Y149C/A239G): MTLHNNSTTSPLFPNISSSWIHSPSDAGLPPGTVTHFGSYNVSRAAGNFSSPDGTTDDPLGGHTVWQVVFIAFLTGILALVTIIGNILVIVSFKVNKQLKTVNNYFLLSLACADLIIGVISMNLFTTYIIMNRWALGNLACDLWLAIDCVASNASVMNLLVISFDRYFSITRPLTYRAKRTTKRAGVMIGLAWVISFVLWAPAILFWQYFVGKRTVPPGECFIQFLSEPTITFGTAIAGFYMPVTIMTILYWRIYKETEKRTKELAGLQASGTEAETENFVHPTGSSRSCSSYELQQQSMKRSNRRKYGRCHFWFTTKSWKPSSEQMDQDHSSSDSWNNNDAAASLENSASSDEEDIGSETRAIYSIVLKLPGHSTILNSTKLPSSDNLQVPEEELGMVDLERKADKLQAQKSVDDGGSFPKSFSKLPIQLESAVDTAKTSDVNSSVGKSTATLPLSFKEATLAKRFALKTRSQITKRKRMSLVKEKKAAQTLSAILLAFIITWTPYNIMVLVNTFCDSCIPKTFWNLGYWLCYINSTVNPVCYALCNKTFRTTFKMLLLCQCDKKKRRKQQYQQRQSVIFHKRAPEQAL
Experimental: as §2, §3

[4] = molecular target: T1, hM4Di; assay: [18F]JHU37107 PET in a monkey expressing hM4Di in the right amygdala; assay type: in vivo, rhesus monkey (Macaca mulatta); set-up: expressed in transfected cells; host or cells: rhesus monkey (Macaca mulatta) right amygdala, lentivirus-transduced neurons; conditions: mean
Experimental: Lentivirus expressing an hM4Di-CFP fusion protein under an hSyn promoter[11] with a titer of >10^9 infectious particles was loaded into a 100 µL glass syringe (Hamilton Co., MA). The 31-gauge needle of the syringe was sheathed with a silica capillary (450 µm OD) to create a step 1 mm from the base of the aperture. The syringe was mounted in a Nanomite pump (Harvard Apparatus, Cambridge, MA). The needle was lowered through the incision in the dura mater to each of the pre-calculated target sites and 10 or 20 µL was infused at a rate of 1 µL min^−1. Each monkey received a total of between 10 and 12 injections (for a total injection volume of 120–240 µL). Post-infusion, the needle was left in situ for 10 min after each injection to allow pressure from the infusate to dissipate. The needle was then slowly removed. At the completion of the injection series the soft tissues were sutured together in anatomical layers.
(§1) [^18F]JHU37107 was prepared via the no-carrier-added ^18F-fluorination using an FDG Nuclear Interface module (Muenster, Germany). Briefly, 4 mg precursor (8-chloro-11-(4-ethylpiperazin-1-yl)-5H-dibenzo[b,e][1,4]diazepin-2-ol) and 8 mg tris(acetonitrile)cyclopentadienylruthenium(II)hexafluorophosphate (STREM, Boston, MA) were dissolved in ethanol (0.3 mL), the solution was heated at 85 °C for 25 min and evaporated to dryness under a stream of argon gas. The residue was dissolved in DMSO (0.5 mL) and acetonitrile (0.5 mL) and the solution was added to a dry complex of [^18F]fluoride and 9 mg 1,3-bis(2,6-di-i-propylphenyl)-2-chloroimidazolium chloride (STREM). The reaction mixture was heated at 130 °C for 30 min, diluted with mixture of 0.5 mL acetonitrile, 0.5 mL water and 0.03 mL TFA and injected onto a semi-preparative HPLC column (Luna C18, 10 micron, 10 mm × 250 mm) and eluted with 23:77 (v:v) acetonitrile:water (0.1% trifluoroacetic acid) at a flow rate of 10 mL min^−1. The radioactive peak corresponding to [^18F]JHU37107 (tR = 9.9 min) was collected in a reservoir containing 50 mL of water and 3 mL aq 8.4% NaHCO3 solution. The diluted product was loaded onto a solid phase extraction cartridge (Waters Oasis HLB plus light) and rinsed with 10 mL sterile saline. The product was eluted with 1000 µL of ethanol through a sterile 0.2 μm filter into a sterile, pyrogen-free vial and 10 mL saline was added through the same filter. The final product [^18F]JHU37107 was then analyzed by analytical HPLC (Luna C18, 10 micron, 4.6 mm × 250 mm; mobile phase 23:77 (v:v) acetonitrile:water (0.1% trifluoroacetic acid), flow rate of 3 mL min^−1; tR = 6.4 min) using a UV detector at 254 nm to determine the radiochemical purity (>95%) and specific radioactivity (152–188 GBq μmol^−1 (4100–5070 mCi μmol^−1)) at the time synthesis ended.
All macaque studies were acquired dynamically on the Focus 220 PET scanner (Siemens Medical Solutions, Knoxville, TN). The Focus 220 is a dedicated pre-clinical scanner with a transaxial FOV of 19 cm and an axial FOV of 7.5 cm. Image resolution is <2 mm within the central 5 cm FOV.
After initial evaluation the monkey was sedated with ketamine (10 mg kg^−1) followed by ketoprofen (as an analgesic) and glycopyrrolate (for salvia reduction), all weight dependent IM injections. The monkey would then be placed in the supine position, intubated with a tracheal tube. […] The monkey was always monitored while anesthetized. […]

[5] = tested on: DREADDs; assay: [18F]JHU37107 PET in D1-DREADD transgenic mice; assay type: in vivo
Experimental: as §1, with “[…] .” for “tR = 6.4 min) using a UV detector at 254 nm to determine the radiochemical purity (>95%) and specific radioactivity (152–188 GBq μmol^−1 (4100–5070 mCi μmol^−1)) at the time synthesis ended.”
Total acquisition time was 60 min.

For `CCN1CCN(C2=Nc3ccccc3Nc3ccccc32)CC1` [C22, reference compound], the pKi [1] was 8.05.

`C[N+]1([O-])CCN(C2=Nc3cc(Cl)ccc3Nc3ccccc32)CC1` [CNO, clozapine N-oxide, reference compound] was tested, and the “functional response, BRET (Go-alpha-Rluc8, beta1, gamma2-mVenus), no DREADD” value [2] was “did not show any functional response” and the “functional response, GCaMP6f, no DREADD” value [2] was “did not show any functional response”.

Work on `CCN1CCN(C2=Nc3cc(Cl)ccc3Nc3ccc(F)cc32)CC1` [JHU37107, 8-Chloro-11-(4-ethylpiperazin-1-yl)-2-fluoro-5H-dibenzo[b,e][1,4]diazepine] yielded a pKi [3] of 7.98 and a pKi [1] of 7.63.

With `CCN1CCN(C2=Nc3cc(Cl)ccc3Nc3ccc([18F])cc32)CC1` [[18F]JHU37107] the “PET binding value, PFC mean (Figure 4, second Panel l)” value ([4]; PFC) was 1.094, the “PET binding value, PUT mean (Figure 4, second Panel l)” value ([4]; PUT) was 1.196 and the “PET binding value, hM4Di mean (Figure 4, second Panel l)” value ([4]; hM4Di region) was 2.423. The “PET binding value, CB (Figure 4 Panel D, first group)” value ([5]; CB, individual values) was 0.271 and 0.3157, the “PET binding value, CB (Figure 4 Panel D, second group)” value ([5]; CB, individual values) was 0.004 and 0.238 and the “PET binding value, CB (Figure 4 Panel D, third group)” value ([5]; CB, individual values) was 0.02536 and 0.05718 and 0.04755. The “PET binding value, CTX (Figure 4 Panel D, first group)” value ([5]; CTX, individual values) was 0.3049 and 0.3358, the “PET binding value, CTX (Figure 4 Panel D, second group)” value ([5]; CTX, individual values) was 0.244 and 0.22 and the “PET binding value, CTX (Figure 4 Panel D, third group)” value ([5]; CTX, individual values) was 0.4367 and 0.4206 and 0.3996. For the same molecule, the “PET binding value, baseline (Figure 4 Panel D)” value ([5]; first line (values equal the STR values of the third group)) was 1.736 and 1.664 and 1.424 and 1.7038 and 1.723 and 1.422, the “PET binding value, baseline (Figure 4 Panel D)” value ([5]; second line (values equal the CTX values of the third group)) was 0.4367 and 0.4206 and 0.3996 and the “PET binding value, blocked (Figure 4 Panel D)” value (“PET binding value, blocked” for short) ([5]; first line (STR by position)) was 0.6764 and 0.9438 and 0.6607 and 0.8306. The “PET binding value, blocked” value ([5]; second line (CTX by position)) was 0.2742 and 0.4049 and the “PET binding value, blocked” value ([5]; third line (CB by position)) was 0.2463 and 0.2748.
